Key:
Procathepsin L = Procathepsin L (Homo sapiens, UniProt P07711); experiment: Inhibition of cathepsin L
Plasmodium falciparum = experiment: Antiplasmodial activity against Plasmodium falciparum FCBR; assay type: functional, organism-based
[1] = Inhibition of Plasmodium falciparum falcipain-2
Cathepsin B = Cathepsin B (Homo sapiens, UniProt P07858); experiment: Inhibition of cathepsin B
[2] = Cytotoxicity against mouse J774.1 cells; assay type: cell-based
[3] = Apparent permeability across human Caco-2 cells; assay type: ADME, cell-based
[4] = Cytotoxicity against mouse DC
[5] = Cytotoxicity against human HEK293T cells; assay type: cell-based; settings: HEK-293T
[6] = Apparent permeability from basolateral to apical side of human Caco-2 cells
[7] = Apparent permeability from apical to basolateral side of human Caco-2 cells

Chain of Procathepsin L (P07711 whole entry): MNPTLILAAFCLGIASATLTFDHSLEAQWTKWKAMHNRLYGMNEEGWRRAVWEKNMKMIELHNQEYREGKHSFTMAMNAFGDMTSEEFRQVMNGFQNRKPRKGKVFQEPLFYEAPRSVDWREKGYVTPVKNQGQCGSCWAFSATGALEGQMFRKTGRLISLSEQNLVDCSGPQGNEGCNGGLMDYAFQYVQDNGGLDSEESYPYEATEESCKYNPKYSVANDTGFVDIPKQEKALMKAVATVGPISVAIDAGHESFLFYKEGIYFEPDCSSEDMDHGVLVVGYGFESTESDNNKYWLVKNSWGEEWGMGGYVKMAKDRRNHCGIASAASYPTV

SMILES	Ki (Procathepsin L) [µM]	IC50 (Plasmodium falciparum) [µM]	Ki [1] [µM]	Ki (Cathepsin B) [µM]	also measured
CN(C)C(=O)/C=C/CNC(=O)CN1C(=O)[C@@H](COC(=O)Nc2ccc(Cl)cc2C(F)(F)F)N=C(c2ccccc2)c2ccccc21	1.9	> 100	0.076	0.85	–
CC(=O)/C=C/[C@H](CCc1ccccc1)NC(=O)CN1C(=O)[C@@H](COC(=O)Nc2ccc(Cl)cc2C(F)(F)F)N=C(c2ccccc2)c2ccccc21	7.5	–	–	8.4	–
COC(=O)/C=C/[C@H](CCc1ccccc1)NC(=O)CN1C(=O)[C@@H](COC(=O)Nc2ccc(Cl)cc2C(F)(F)F)N=C(c2ccccc2)c2ccccc21	2.7	–	–	13.7	–
CN(C)C(=O)/C=C/[C@H](CCc1ccccc1)NC(=O)CN1C(=O)[C@@H](COC(=O)Nc2ccc(Cl)cc2C(F)(F)F)N=C(c2ccccc2)c2ccccc21	7.4	–	0.076	6.4	–
COC(=O)/C=C/CNC(=O)CN1C(=O)[C@@H](COC(=O)Nc2ccc(Cl)cc2C(F)(F)F)N=C(c2ccccc2)c2ccccc21	8.4	12	0.017	7.3	IC50 [2]: 31.3 µM; Papp [3]: 3.82 ×10⁻⁶ cm/s; IC50 [4]: 30.4 µM; IC50 [5]: 31.2 µM
N#C/C=C/CNC(=O)CN1C(=O)[C@@H](COC(=O)Nc2ccc(Cl)cc2C(F)(F)F)N=C(c2ccccc2)c2ccccc21	3.2	36.1	0.19	9.9	–
CC(=O)/C=C/CNC(=O)CN1C(=O)[C@@H](COC(=O)Nc2ccc(Cl)cc2C(F)(F)F)N=C(c2ccccc2)c2ccccc21	5.9	9.3	–	6	–
CN/C(=N/CCSCc1nc[nH]c1C)NC#N [CIMETIDINE]	–	–	–	–	Papp B→A [6]: 1.5 ×10⁻⁶ cm/s; Papp A→B [7]: 0.56 ×10⁻⁶ cm/s
CC(C)C[C@H](NC(=O)[C@H]1O[C@@H]1C(=O)O)C(=O)NCCCCN=C(N)N [E-64]	–	–	0.29	–	–
CC[C@]1(O)C[C@@H]2CN(CCc3c([nH]c4ccccc34)[C@@](C(=O)OC)(c3cc4c(cc3OC)N(C)[C@H]3[C@@](O)(C(=O)OC)[C@H](OC(C)=O)[C@]5(CC)C=CCN6CC[C@]43[C@@H]65)C2)C1 [VINBLASTINE]	–	–	–	–	Papp [3]: 0.51 ×10⁻⁶ cm/s

— ChEMBL document CHEMBL1153391 (J Med Chem, 2009)
